In patent US11253531B2, “Lipid supplements for reducing nerve action potentials” (Nutritional Therapeutics, Inc., priority 2011, dated 2022):

Test system: dorsal root ganglia neurons
Experiment: Field stimulation of cultured neurons, membrane potential by di8ANEPPS fluorescence
Type: cell-based, rat
Details: caffeine added to NTFL
From the text: The procedure below details a study performed on one type of cultured nerve cells, namely dorsal root ganglia neurons, using a 10% solution of glycerolphospholipids in combination with inulin (NTFL).
The cultured cells were then exposed to an aqueous solution of the lipid supplement comprising glycerolphospholipids in combination with inulin, referred to as NTFL nanomicelles.
This was used as an indicator of membrane potential instead of microelectrodes because patching these neurons or the use of microelectrodes can be difficult in these studies in the presence of the NTFL nanomicellles solutions.
To perform the comparison, electrodes were applied to the bath containing the cultured neurons and field stimulation was provided by passed current through the bath. This caused depolarization of the nerve cells resulting in fluorescence of the di8ANEPPS.

Question: For `Cn1c(=O)c2c(ncn2C)n(C)c1=O` [caffeine], which “effect on nerve conduction” value is on record?
Answer: did not appear to have an effect on nerve conduction
